Assay results taken from patent publication US8802597B2, “Herbicidal pyrimidines” (E I du Pont de Nemours and Company, priority 2003, dated 2014).

Assays:
Type in all cases: in vivo
[1] = system: barnyardgrass (Echinochloa crus-galli); experiment: Test A pre/postemergence
Procedure, shortened: (§1)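 Greenhouse herbicide test with preemergence directed soil spray and postemergence foliar spray at the 1- to 2-leaf stage; visual control rating 0–100 versus untreated at ~10 days.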

[2] = system: crabgrass (Digitaria sanguinalis); experiment: Test A pre/postemergence
Procedure, shortened: as §1

[3] = system: giant foxtail (Setaria faberi); experiment: Test A pre/postemergence
Procedure, shortened: as §1

[4] = system: morningglory (Ipomoea spp.); experiment: Test A pre/postemergence
Procedure, shortened: as §1

[5] = system: redroot pigweed (Amaranthus retroflexus); experiment: Test A pre/postemergence
Procedure, shortened: as §1

[6] = system: velvetleaf (Abutilon theophrasti); experiment: Test A pre/postemergence
Procedure, shortened: as §1

[7] = system: barnyardgrass (Echinochloa crus-galli); experiment: Test B flooded paddy test; settings: Flood, scale 0 to 100
Experimental: (§2) At the same time, plants selected from these crop and weed species and also blackgrass (Alopecurus myosuroides) and wild oat (Avena fatua) were treated with postemergence applications of test chemicals formulated in the same manner. Plants ranged in height from 2 to 18 cm (1- to 4-leaf stage) for postemergence treatments. Plant species in the flooded paddy test consisted of rice (Oryza sativa), umbrella sedge (Cyperus difformis), duck salad (Heteranthera limosa) and barnyardgrass (Echinochloa crus-galli) grown to the 2-leaf stage for testing. Treated plants and controls were maintained in a greenhouse for 13 to 15 days, after which time all species were compared to controls and visually evaluated. Plant response ratings, summarized in Table B, are based on a scale of 0 to 100 where 0 is no effect and 100 is complete control. A dash (-) response means no test result.

[8] = system: duck salad (Heteranthera limosa); experiment: Test B flooded paddy test; settings: Flood, scale 0 to 100
Experimental: as §2

rice (Oryza sativa) = experiment: Test B flooded paddy test; settings: Flood, scale 0 to 100
Experimental: as §2

[9] = system: umbrella sedge (Cyperus difformis); experiment: Test B flooded paddy test; settings: Flood, scale 0 to 100
Experimental: as §2

[10] = Postemergence, 125 g ai/ha, 0 to 100 scale (0 no effect, 100 complete control)
[11] = Postemergence, 500 g ai/ha, 0 to 100 scale (0 no effect, 100 complete control)
[12] = Preemergence, 125 g ai/ha, 0 to 100 scale where 0 is no effect and 100 is complete control, approximately ten days
[13] = Preemergence, 500 g ai/ha, 0 to 100 scale where 0 is no effect and 100 is complete control, approximately ten days

In the case of CCOC(=O)c1nc(-c2ccc(C(F)(F)F)cc2)nc(N)c1Br [Compound 60], the “Plant response rating, Barnyardgrass” value [1, 10] is reported as 0, the “Plant response rating, Barnyardgrass” value [1, 11] is reported as 0 and the “Plant response rating, Barnyardgrass” value [1, 12] is reported as 0. For the same compound, the “Plant response rating, Barnyardgrass” value [1, 13] was 0, the “Plant response rating, Crabgrass” value [2, 10] was 0 and the “Plant response rating, Crabgrass” value [2, 11] was 0. For the same compound, the “Plant response rating, Crabgrass” value [2, 12] was 0, the “Plant response rating, Crabgrass” value [2, 13] was 0 and the “Plant response rating, Foxtail, Giant” value [3, 10] was 0. The “Plant response rating, Foxtail, Giant” value [3, 11] was 0, the “Plant response rating, Foxtail, Giant” value [3, 12] was 0 and the “Plant response rating, Foxtail, Giant” value [3, 13] was 0. The “Plant response rating, Morningglory” value [4, 10] was 0, the “Plant response rating, Morningglory” value [4, 11] was 20 and the “Plant response rating, Morningglory” value [4, 12] was 0. For the same compound, the “Plant response rating, Morningglory” value [4, 13] was 0, the “Plant response rating, Pigweed” value [5, 10] was 10 and the “Plant response rating, Pigweed” value [5, 11] was 40. For the same compound, the “Plant response rating, Pigweed” value [5, 12] was 0, the “Plant response rating, Pigweed” value [5, 13] was 0 and the “Plant response rating, Velvetleaf” value [6, 10] was 30. The “Plant response rating, Velvetleaf” value [6, 11] was 40, the “Plant response rating, Velvetleaf” value [6, 12] was 0 and the “Plant response rating, Velvetleaf” value [6, 13] was 0. The “Plant response rating, Barnyardgrass” value ([7]; 125 g ai/ha) was 0, the “Plant response rating, Barnyardgrass” value ([7]; 500 g ai/ha) was 20 and the “Plant response rating, Ducksalad” value ([8]; 125 g ai/ha) was 80. The “Plant response rating, Ducksalad” value ([8]; 500 g ai/ha) was 90, the “Plant response rating, Rice” value (rice (Oryza sativa); 125 g ai/ha) was 0 and the “Plant response rating, Rice” value (rice (Oryza sativa); 500 g ai/ha) was 0. For the same compound, the “Plant response rating, Sedge, Umbrella” value ([9]; 125 g ai/ha) was 0 and the “Plant response rating, Sedge, Umbrella” value ([9]; 500 g ai/ha) was 30.
